Data set [1] has as its target T1, sodium iodide symporter (NIS), iodide transport in FRTL5 cells (Rattus norvegicus, UniProt Q63008).
T1 construct: host or cells: FRTL5 (rat thyroid-derived cells), endogenous NIS
T1 sequence (Q63008 1-618): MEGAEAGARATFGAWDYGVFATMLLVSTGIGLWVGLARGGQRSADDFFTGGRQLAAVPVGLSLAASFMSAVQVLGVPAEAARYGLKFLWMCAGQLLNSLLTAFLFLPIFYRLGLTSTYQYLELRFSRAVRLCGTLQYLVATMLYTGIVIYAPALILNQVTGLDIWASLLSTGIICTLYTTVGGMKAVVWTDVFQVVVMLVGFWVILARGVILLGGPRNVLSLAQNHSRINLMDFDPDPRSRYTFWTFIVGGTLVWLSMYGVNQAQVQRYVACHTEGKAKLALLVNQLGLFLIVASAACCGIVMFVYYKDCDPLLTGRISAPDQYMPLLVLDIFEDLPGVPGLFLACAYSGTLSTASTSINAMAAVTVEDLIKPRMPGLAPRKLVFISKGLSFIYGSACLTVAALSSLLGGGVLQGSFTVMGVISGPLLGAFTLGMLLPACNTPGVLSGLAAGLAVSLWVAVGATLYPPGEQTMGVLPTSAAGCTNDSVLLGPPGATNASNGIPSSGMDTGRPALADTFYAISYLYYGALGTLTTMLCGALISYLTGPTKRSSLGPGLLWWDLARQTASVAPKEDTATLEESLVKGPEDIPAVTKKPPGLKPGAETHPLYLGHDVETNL
The conditions noted are these: F. Waltz et al., Anal. Biochem., 2010; read-out: IC50, competitive inhibition of iodide transport in FRTL5 cells; cited from earlier work.

The next data set has as its target T2, hNIS-HEK293 cells (Homo sapiens, UniProt Q92911).
T2 construct: host or cells: HEK293 stably expressing human NIS
T2 sequence (Q92911 1-643): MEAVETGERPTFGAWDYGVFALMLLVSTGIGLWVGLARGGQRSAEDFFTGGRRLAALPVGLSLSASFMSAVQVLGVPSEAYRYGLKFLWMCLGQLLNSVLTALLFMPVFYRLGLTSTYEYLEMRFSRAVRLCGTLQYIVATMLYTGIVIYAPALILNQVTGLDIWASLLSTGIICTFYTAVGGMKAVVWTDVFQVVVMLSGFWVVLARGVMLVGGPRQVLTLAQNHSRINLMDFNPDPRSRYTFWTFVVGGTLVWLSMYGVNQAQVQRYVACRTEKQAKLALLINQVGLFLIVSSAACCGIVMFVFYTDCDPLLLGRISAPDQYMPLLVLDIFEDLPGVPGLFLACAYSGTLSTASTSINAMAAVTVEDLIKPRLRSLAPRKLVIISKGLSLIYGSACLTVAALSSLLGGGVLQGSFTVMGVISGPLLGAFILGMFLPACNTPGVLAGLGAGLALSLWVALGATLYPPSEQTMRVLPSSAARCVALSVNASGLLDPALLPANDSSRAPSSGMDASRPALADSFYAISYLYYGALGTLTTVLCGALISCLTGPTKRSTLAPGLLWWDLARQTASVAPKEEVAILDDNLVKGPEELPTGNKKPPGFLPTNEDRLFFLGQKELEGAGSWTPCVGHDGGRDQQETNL
The conditions noted are these: cited from earlier work.

For data set [2] the following is noted: concentration up to 200 μM; cited from earlier work.
For data set [3], the target named is T3, sodium iodide symporter (NIS), iodide uptake in FRTL5 cells (Rattus norvegicus, UniProt Q63008).
T3 construct: endogenous in cells; host or cells: FRTL5 (rat thyroid-derived cells)
T3 sequence (Q63008 1-618): T1 sequence (Q63008 1-618)
The data set can be described thus: Inhibition of iodide uptake in FRTL5 cells, non radioactive arsenic/cerium assay. The conditions noted are these: Table 5, variations at Y, R1, R3, R4, R5; averaged from two to four independent experiments; NaI 10 μM, 1 hour, 20°C; read-out: IC50 (μM), inhibitory activity against iodide uptake in FRTL5 cells. It is filed as cell-based. On the procedure:
Some of the synthesized compounds were evaluated for their ability to inhibit iodide entrapment in FRTL5 cells. The IC50 values were measured in at least […] independent experiments.
The biological activity of each compound was determined in FRTL5 cells, using a non radioactive arsenic/cerium assay as described in F. Waltz et al., Anal. Biochem., 2012, 396, 91-95. Compound potency was expressed as IC50, the concentration of compound necessary to achieve 50% inhibition of iodide uptake. Briefly, to FRTL5 cells at 70-90% confluence was added compound (200 μM, 10 μM, 0.5 μM, 25 nM, 1.2 nM, 60 pM, […], and 0.15 pM final), followed by NaI (10 μM final). After 1 hour incubation at 20±1° C., supernatant was removed and the cells were immediately assayed for iodide content using the modified As/Ce Sandell-Kolthoff reaction. NaClO4 was tested in each microplate as assay controls. The IC50 values of all compounds were measured least thrice independently.
Stock solutions of tested compounds were prepared in DMSO (20 mM) and that of NaClO4 in water (20 mM). These stock solutions were stored at 4° C. for up to 2 months. Sample dilutions: the day of the assay, a daughter plate (clear flat-bottomed 96-well polystyrene microplates, Costar 9017) was prepared from 20 mM stock solutions. NaClO4 (column 2) and DHPM samples (columns 4 to 11) were diluted at 10× the final concentration in uptake buffer.
FRTL5 cells were cultured as described in F. S. Ambesi-Impiombato et al., Proc. Natl. Acad. Sci. USA, 1980, 77, 3455-3459. Briefly, FRTL5 cells were cultured in Coon's modified F12 medium supplemented with 5% heat-inactivated fetal bovine serum (Invitrogen), 2 mM L-glutamine, 100 U/mL penicillin, 0.1 mg/mL streptomycin, 10 μg/mL insulin, 10 nM hydrocortisone, 10 ng/mL Gly-His-Lys acetate, 1 mU/mL TSH, 5 μg/mL transferrin at 37° C. and 5% CO2. For iodide uptake assays, 200 μL of FRTL5 cells with density of 250,000 cells/mL were dispensed in each well of clear flat-bottomed 96-well polystyrene microplates (Costar 3628) using the Multidrop 384 (ThermoFisher Scientific), and further cultured until confluence reached 80-90% (3-4 days).
The culture medium of FRTL5 monolayer cells at 80-90% confluence was replaced by uptake buffer (20° C.) via continuous aspiration/dispense cycle (600 μL) using a 96-needle head plate washer PW 384 (Tecan). The 96-needle head was set to a vertical position such that 80 μL of fresh uptake buffer remained in each well at the end of the cycle. The samples (10 μL each) from the daughter plate were transferred all at once to the assay plate using the 96-tip head pipettor Liquidator 96 (Mettler Toledo). Immediately after, 10 μL of a NaI solution at 100 μM was added to each well of the assay plate using the Liquidator 96. The assay plate was left to stand in the dark at 20±1° C. for 60 min. The assay plate was then washed with cold (4° C.) uptake buffer using the PW 384 plate washer and residual supernatant was immediately discarded by inverting the assay plate on absorbent paper.
Sodium iodide standards (S1 to S7) and water (S0) were distributed in duplicate (100 μL each) in the first and last column of the assay plate. Water (100 μL) was added to the columns with the Multidrop 384. 100 μL of the ammonium cerium (IV) sulfate solution (10.5 mM) was distributed into the columns, followed by 100 μL of the sodium arsenite (III) solution (24 mM) using the Multidrop 384. The assay plate was left to stand at 20±1° C. for 30 min. The absorbance at 420 nm (Abs420) was immediately recorded on a SpectraMax Plus 384 (Molecular Devices). A calibration curve was prepared for each plate by plotting the logarithmic conversion of the means of Abs420 (n=2) vs iodide standard concentrations (S0 to S7). The iodide concentrations in the samples were determined after linear regression of the calibration curve.

Data set [4] concerns the target T4, iodide transport in rat thyroid-derived cell lines (FRTL5) (Rattus norvegicus, UniProt Q63008).
T4 construct: host or cells: FRTL5 (rat thyroid-derived cells), endogenous NIS
T4 sequence (Q63008 1-618): T1 sequence (Q63008 1-618)
The conditions noted are these: reported in literature (N. Lecat-Guillet et al., 2008); read-out: IC50, iodide uptake in FRTL5 cells; cited from earlier work.

Structures are written as SMILES.

The term IC50 denotes the concentration needed to halve the response being measured. What is called melting point is the temperature, or range, at which the solid turns liquid.

Turning to `F[B-](F)(F)F` [BE4^−], in data set [1], the IC50 was 750 nM. In the case of `[O-][Cl+3]([O-])([O-])O` [ClO4^−], the concentration for half-maximal inhibition (IC50) in data set [1] was 140 nM. In turn, `COc1ccc(COC(=O)C2=C(C)NC(=O)NC2c2ccccc2)cc1` (stereo not drawn) [Compound 1, 4-methoxybenzyl 6-methyl-2-oxo-4-phenyl-1,2,3,4-tetrahydropyrimidine-5-carboxylate] yielded a melting point of 162 to 164 °C. In addition, the “Efflux of iodide from preloaded hNIS-HEK293 cells” value at hNIS-HEK293 cells is “can trigger a rapid efflux of iodide”. Also, in data set [2], the Cytotoxicity entry was “not found cytotoxic”. Compound `COc1ccc(COC(=O)C2=C(C)N(C)C(=O)N(C)C2c2ccco2)cc1OC` (stereo not drawn) [Compound 58, 3,4-Dimethoxybenzyl 4-(furan-2-yl)-1,3,6-trimethyl-2-oxo-1,2,3,4-tetrahydropyrimidine-5-carboxylate] returned a melting point of 122 to 124 °C. Besides, the IC50 in data set [3] came out at 0.065 µM.

Turning to `CC1=C(C(=O)OCc2ccc3c(c2)OCO3)C(c2ccco2)NC(=O)N1` (stereo not drawn) [Compound 59, benzo[d][1,3]dioxol-5-ylmethyl 4-(furan-2-yl)-6-methyl-2-oxo-1,2,3,4-tetrahydropyrimidine-5-carboxylate], the melting point was in the range of 169 to 171 °C. For the same compound, the IC50 in data set [3] is 0.004 µM. In the same order, the values of `CC1=C(C(=O)OCc2ccc3c(c2)OCO3)C(c2ccco2)NC(=O)N1C` (stereo not drawn) [Compound 60, Benzo[d][1,3]dioxol-5-ylmethyl 4-(furan-2-yl)-1,6-dimethyl-2-oxo-1,2,3,4-tetrahydropyrimidine-5-carboxylate] are 141 to 143 °C and 0.073 µM. As to `CC1=C(C(=O)OCc2ccc3c(c2)OCO3)C(c2ccoc2)NC(=O)N1` (stereo not drawn) [Compound 62, Benzo[d][1,3]dioxol-5-ylmethyl 4-(furan-3-yl)-6-methyl-2-oxo-1,2,3,4-tetrahydropyrimidine-5-carboxylate], the melting point was in the range of 172 to 173 °C. Also, the IC50 in data set [3] came out at 0.037 µM. In the same order, the values of `CC1=C(C(=O)NCc2ccc3c(c2)OCO3)C(c2ccccc2)NC(=O)N1` (stereo not drawn) [Compound 63, N-(benzo[d][1,3]dioxol-5-ylmethyl) 6-methyl-2-oxo-4-phenyl-1,2,3,4-tetrahydropyrimidine-5-carboxamide] are 235 to 237 °C and 0.078 µM. Take `F[B-](F)(F)c1ccc(OCc2ccccc2)cc1` [ITB11]: the IC50 in data set [4] is 400 nM.

For `O=[N+]([O-])O` [NO3^−], in data set [1], the IC50 was 250000 nM. In the case of `F[P-](F)(F)(F)(F)F` [PF6^−], the IC50 in data set [1] is 9 nM.

The values above are taken from patent US20150175556A1, “DIHYDROPYRIMIDIN-2(1H)-ONES AND DIHYDROPYRIMIDIN-2(1H)-THIONES AS INHIBITORS OF SODIUM IODIDE SYMPORTER” (COMMISSARIAT A L'ENERGIE ATOMIQUE ET AUX ENERGIES …, priority 2012, published 2015).
